Experimental data taken from ChEMBL document CHEMBL1201862, “PubChem BioAssay data set” (2004).
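Each compound was tested at five concentrations against cells in 96-well plates for 48 hours. GI50 = concentration required for 50% inhibition of growth.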 Calls of active or inactive are those of the source. Rule as the data show it: active = GI50 up to about 1.1 µM and inactive = higher.

What was measured:
Experiment in all cases: NCI-60 cell line screen, 48 h
786-0 = test system: 786-0
CAKI-1 = test system: CAKI-1
DLD-1 = test system: DLD-1
DMS-273 = test system: DMS-273
DU-145 = test system: DU-145
HCT-116 = test system: HCT-116
HT-29 = test system: HT-29
Hs-578T = test system: Hs-578T
M14 = test system: M14
MCF7 = test system: MCF7
MOLT-4 = test system: MOLT-4
NCI-H23 = test system: NCI-H23
NCI/ADR-RES = test system: NCI/ADR-RES
OVCAR-8 = test system: OVCAR-8
RPMI-8226 = test system: RPMI-8226
SF-268 = test system: SF-268
SK-MEL-2 = test system: SK-MEL-2
SK-MEL-5 = test system: SK-MEL-5
SN12C = test system: SN12C
SR = test system: SR
SW-620 = test system: SW-620
A498 = test system: A498
A549 = test system: A549
ACHN = test system: ACHN
CCRF-CEM = test system: CCRF-CEM
COLO 205 = test system: COLO 205
DMS-114 = test system: DMS-114
EKVX = test system: EKVX
HCT-15 = test system: HCT-15
HL-60 = test system: HL-60
HOP-62 = test system: HOP-62
IGROV-1 = test system: IGROV-1
K562 = test system: K562
KM-20L2 = test system: KM-20L2
KM12 = test system: KM12
LOX IMVI = test system: LOX IMVI
LXFL 529 = test system: LXFL 529
M19-MEL = test system: M19-MEL
Malme-3M = test system: Malme-3M
NCI-H460 = test system: NCI-H460
NCI-H522 = test system: NCI-H522
OVCAR-3 = test system: OVCAR-3
OVCAR-4 = test system: OVCAR-4
OVCAR-5 = test system: OVCAR-5
RXF 393 = test system: RXF 393
SF-295 = test system: SF-295
SF-539 = test system: SF-539
SK-OV-3 = test system: SK-OV-3
SNB-19 = test system: SNB-19
SNB-75 = test system: SNB-75
SNB-78 = test system: SNB-78
TK-10 = test system: TK-10
U-251 = test system: U-251
UACC-257 = test system: UACC-257
UACC-62 = test system: UACC-62
UO-31 = test system: UO-31
XF498 = test system: XF498
BT-549 = test system: BT-549
HCC 2998 = test system: HCC 2998
HOP-92 = test system: HOP-92
MDA-MB-231 = test system: MDA-MB-231
MDA-MB-435 = test system: MDA-MB-435
MDA-N = test system: MDA-N
NCI-H226 = test system: NCI-H226
PC-3 = test system: PC-3
SK-MEL-28 = test system: SK-MEL-28
T47D = test system: T47D

With `COc1ccc2c(c1)-c1nn(CCCN(C)C)c3ccc([N+](=O)[O-])c(c13)N2` [PYRAZOLOACRIDINE] the GI50 (786-0) was 191 nM (active), the GI50 (CAKI-1) was 396 nM (active) and the GI50 (DLD-1) was 262 nM (active). The GI50 (DMS-273) was 135 nM (active), the GI50 (DU-145) was 484 nM (active) and the GI50 (HCT-116) was 98.6 nM (active). For the same compound, the GI50 (HT-29) was 137 nM (active), the GI50 (Hs-578T) was 603 nM (active) and the GI50 (M14) was 610 nM (active). The GI50 (MCF7) was 333 nM (active), the GI50 (MOLT-4) was 66.2 nM (active) and the GI50 (NCI-H23) was 662 nM (active). For the same compound, the GI50 (NCI/ADR-RES) was 98.6 nM (active), the GI50 (OVCAR-8) was 118 nM (active) and the GI50 (RPMI-8226) was 305 nM (active). The GI50 (SF-268) was 283 nM (active), the GI50 (SK-MEL-2) was 647 nM (active) and the GI50 (SK-MEL-5) was 536 nM (active). The GI50 (SN12C) was 199 nM (active), the GI50 (SR) was 173 nM (active) and the GI50 (SW-620) was 133 nM (active).

For `CC(=O)O[C@H]1C(=O)[C@@]2(C)C(C(OC(=O)c3ccccc3)[C@]3(O)CC(OC(=O)C(O)C(NC(=O)c4ccc(C)cc4)c4ccccc4)C(C)=C1C3(C)C)[C@]1(OC(C)=O)CO[C@@H]1C[C@@H]2O` (stereo partly specified), the GI50 (786-0) was 7.4 nM (active), the GI50 (A498) was 5.96 nM (active) and the GI50 (A549) was 5.04 nM (active). For the same compound, the GI50 (ACHN) was 112 nM (active), the GI50 (CAKI-1) was 224 nM (active) and the GI50 (CCRF-CEM) was 3.65 nM (active). The GI50 (COLO 205) was < 2.5 nM (active), the GI50 (DLD-1) was 66.1 nM (active) and the GI50 (DMS-114) was < 2.5 nM (active). The GI50 (DMS-273) was < 2.5 nM (active), the GI50 (EKVX) was 111 nM (active) and the GI50 (HCT-116) was < 2.5 nM (active). The GI50 (HCT-15) was 173 nM, the GI50 (HL-60) was < 2.5 nM (active) and the GI50 (HOP-62) was 9.86 nM (active). The GI50 (HT-29) was < 2.5 nM (active), the GI50 (IGROV-1) was < 2.5 nM (active) and the GI50 (K562) was < 2.5 nM (active). For the same compound, the GI50 (KM-20L2) was 3.05 nM (active), the GI50 (KM12) was < 2.5 nM (active) and the GI50 (LOX IMVI) was 3.52 nM (active). The GI50 (LXFL 529) was 4.24 nM (active), the GI50 (M14) was < 2.5 nM (active) and the GI50 (M19-MEL) was < 2.5 nM (active). The GI50 (MOLT-4) was < 2.5 nM (active), the GI50 (Malme-3M) was 4.3 nM (active) and the GI50 (NCI-H23) was 7.85 nM (active). For the same compound, the GI50 (NCI-H460) was < 2.5 nM (active), the GI50 (NCI-H522) was < 2.5 nM (active) and the GI50 (OVCAR-3) was < 2.5 nM (active). For the same compound, the GI50 (OVCAR-4) was 3200 nM (inactive), the GI50 (OVCAR-5) was 7.43 nM (active) and the GI50 (OVCAR-8) was 4.26 nM (active). The GI50 (RPMI-8226) was < 2.5 nM (active), the GI50 (RXF 393) was 6.28 nM (active) and the GI50 (SF-268) was 5.73 nM (active). For the same compound, the GI50 (SF-295) was 22.8 nM (active), the GI50 (SF-539) was < 2.5 nM (active) and the GI50 (SK-MEL-2) was < 2.5 nM (active). The GI50 (SK-MEL-5) was 4.02 nM (active), the GI50 (SK-OV-3) was < 2.5 nM (active) and the GI50 (SN12C) was 11.2 nM (active). The GI50 (SNB-19) was 7.71 nM (active), the GI50 (SNB-75) was 4.5 nM (active) and the GI50 (SNB-78) was 4020 nM (inactive). The GI50 (TK-10) was 58.8 nM (active), the GI50 (U-251) was 3.15 nM (active) and the GI50 (UACC-257) was 7.08 nM (active). The GI50 (UACC-62) was 19.9 nM (active), the GI50 (UO-31) was 826 nM (active) and the GI50 (XF498) was < 2.5 nM (active).

In the case of `CCOC(=O)c1cccc(NC(=O)CCl)c1`, the GI50 (786-0) is reported as 1900 nM (inactive), the GI50 (A498) is reported as 15200 nM (inactive) and the GI50 (A549) is reported as 10400 nM (inactive). For the same compound, the GI50 (ACHN) was 3480 nM (inactive), the GI50 (BT-549) was 4450 nM (inactive) and the GI50 (CAKI-1) was 1880 nM (inactive). For the same compound, the GI50 (CCRF-CEM) was 3210 nM (inactive), the GI50 (COLO 205) was 7740 nM (inactive) and the GI50 (DU-145) was 9440 nM (inactive). The GI50 (EKVX) was 3180 nM (inactive), the GI50 (HCC 2998) was 2190 nM (inactive) and the GI50 (HCT-116) was 2800 nM (inactive). For the same compound, the GI50 (HCT-15) was 2750 nM, the GI50 (HL-60) was 3940 nM (inactive) and the GI50 (HOP-62) was 2440 nM (inactive). For the same compound, the GI50 (HOP-92) was 7450 nM (inactive), the GI50 (HT-29) was 3810 nM (inactive) and the GI50 (Hs-578T) was 2930 nM (inactive). For the same compound, the GI50 (IGROV-1) was 2480 nM (inactive), the GI50 (K562) was 3080 nM (inactive) and the GI50 (KM12) was 7460 nM (inactive). The GI50 (LOX IMVI) was 1340 nM (inactive), the GI50 (M14) was 8610 nM (inactive) and the GI50 (MCF7) was 2260 nM (inactive). For the same compound, the GI50 (MDA-MB-231) was 4570 nM (inactive), the GI50 (MDA-MB-435) was 2380 nM (inactive) and the GI50 (MDA-N) was 3920 nM (inactive). The GI50 (MOLT-4) was 5200 nM (inactive), the GI50 (Malme-3M) was 6220 nM (inactive) and the GI50 (NCI-H226) was 6550 nM (inactive). For the same compound, the GI50 (NCI-H23) was 3220 nM (inactive), the GI50 (NCI-H460) was 1190 nM (inactive) and the GI50 (NCI-H522) was 1680 nM (inactive). For the same compound, the GI50 (NCI/ADR-RES) was 3610 nM (inactive), the GI50 (OVCAR-3) was 1860 nM (inactive) and the GI50 (OVCAR-4) was 2370 nM (inactive). The GI50 (OVCAR-5) was 7000 nM (inactive), the GI50 (OVCAR-8) was 3550 nM (inactive) and the GI50 (PC-3) was 6100 nM (inactive). The GI50 (RPMI-8226) was 3990 nM (inactive), the GI50 (RXF 393) was 3000 nM (inactive) and the GI50 (SF-268) was 2110 nM (inactive). For the same compound, the GI50 (SF-295) was 12300 nM (inactive), the GI50 (SF-539) was 2340 nM (inactive) and the GI50 (SK-MEL-28) was 16700 nM (inactive). The GI50 (SK-MEL-2) was 2640 nM (inactive), the GI50 (SK-MEL-5) was 1790 nM (inactive) and the GI50 (SK-OV-3) was 4920 nM (inactive). The GI50 (SN12C) was 2010 nM (inactive), the GI50 (SNB-19) was 28600 nM (inactive) and the GI50 (SNB-75) was 2770 nM (inactive). The GI50 (SR) was 1770 nM (inactive), the GI50 (SW-620) was 3320 nM (inactive) and the GI50 (T47D) was 2480 nM (inactive). For the same compound, the GI50 (TK-10) was 6030 nM (inactive), the GI50 (U-251) was 1400 nM (inactive) and the GI50 (UACC-257) was 5090 nM (inactive). For the same compound, the GI50 (UACC-62) was 1520 nM (inactive) and the GI50 (UO-31) was 4040 nM (inactive).
